Here are results for 1 compound from paper PMC11676982, “Heterotropic Activation of Cytochrome P450 3A4 by Perillyl Alcohol” (Pharmaceutics, 2024).

Series [1] addresses T1, rCYP3A4 (Homo sapiens, UniProt P08684).
T1 construct: host or cells: baculovirus-transfected insect cells
The series is described as follows: Enzyme activity assay using rCYP3A4 with or without cytochrome b5 (MDZ 1′-hydroxylation). Format: biochemical. The protocol:
Incubation mixtures (final volume, 200 μL) contained 0.1 M PPB (pH 7.4), 50 pmol/mL rCYP3A4 with or without cytochrome b5, 1 mM NADPH, 5 μM MDZ, and POH (0–100 μM). After preincubating for 5 min, the reactions were initiated by adding 1 mM NADPH and incubated for 10 min. […] The experiment was performed using three separate samples.

Series [2] addresses T2, CYP3A4 (Homo sapiens, UniProt P08684). The series is described as follows: Effect of POH on the metabolism of other CYP3A4 substrates in pooled HLMs. Format: in vitro ADME. Conditions: (−)-POH 3.2–100 μM, substrates near Km. The protocol:
The substrates were applied at a concentration that approximated their Km values. The reactions were preincubated for 5 min before being initiated with the addition of 1 mM NADPH. After 10 min incubation, reactions containing atorvastatin, buspirone, FMS, or nifedipine were terminated by the addition of 200 μL of ice-cold acetonitrile with 100 nM carbamazepine as an internal standard. For terminating reactions with donepezil or tadalafil, 200 μL of ice-cold methanol containing 0.5% (v/v) formic acid and 1 μM carbamazepine as internal standard was added to samples. […] The experiment was performed using three separate samples.

Series [3] concerns the target T3, CYP2A6 (Homo sapiens, UniProt P11509).
T3 sequence (P11509 1-494): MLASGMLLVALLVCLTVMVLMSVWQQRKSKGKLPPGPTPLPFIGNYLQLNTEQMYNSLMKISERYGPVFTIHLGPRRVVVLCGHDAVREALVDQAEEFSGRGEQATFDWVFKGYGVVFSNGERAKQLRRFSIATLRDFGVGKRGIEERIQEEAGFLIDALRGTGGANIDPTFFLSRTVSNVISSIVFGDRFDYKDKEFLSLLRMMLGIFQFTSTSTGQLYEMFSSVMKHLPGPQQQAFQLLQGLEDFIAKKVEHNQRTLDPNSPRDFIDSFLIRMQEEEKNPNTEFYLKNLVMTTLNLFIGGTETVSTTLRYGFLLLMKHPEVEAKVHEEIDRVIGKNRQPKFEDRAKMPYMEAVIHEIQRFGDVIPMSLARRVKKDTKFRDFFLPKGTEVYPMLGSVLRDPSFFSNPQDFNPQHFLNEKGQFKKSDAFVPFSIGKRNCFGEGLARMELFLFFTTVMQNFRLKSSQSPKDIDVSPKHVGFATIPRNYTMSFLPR
Briefly: Direct CYP inhibition assay in pooled HLMs, CYP2A6 (coumarin). Format: in vitro ADME. As to conditions: pooled HLMs 0.2 mg/mL; substrate coumarin 5 μM; 10 min; 95% CI in parentheses; read-out: IC50 against CYP2A6.

Series [4] concerns the target CYP2E1 (Homo sapiens, UniProt P05181). The series is described as follows: Direct CYP inhibition assay in pooled HLMs, CYP2E1 (chlorzoxazone). Format: in vitro ADME. As to conditions: pooled HLMs 0.2 mg/mL; substrate chlorzoxazone 50 μM; 10 min; read-out: IC50 against CYP2E1.
Series [5] has as its target T4, CYP2B6 (Homo sapiens, UniProt P20813).
T4 sequence (P20813 1-491): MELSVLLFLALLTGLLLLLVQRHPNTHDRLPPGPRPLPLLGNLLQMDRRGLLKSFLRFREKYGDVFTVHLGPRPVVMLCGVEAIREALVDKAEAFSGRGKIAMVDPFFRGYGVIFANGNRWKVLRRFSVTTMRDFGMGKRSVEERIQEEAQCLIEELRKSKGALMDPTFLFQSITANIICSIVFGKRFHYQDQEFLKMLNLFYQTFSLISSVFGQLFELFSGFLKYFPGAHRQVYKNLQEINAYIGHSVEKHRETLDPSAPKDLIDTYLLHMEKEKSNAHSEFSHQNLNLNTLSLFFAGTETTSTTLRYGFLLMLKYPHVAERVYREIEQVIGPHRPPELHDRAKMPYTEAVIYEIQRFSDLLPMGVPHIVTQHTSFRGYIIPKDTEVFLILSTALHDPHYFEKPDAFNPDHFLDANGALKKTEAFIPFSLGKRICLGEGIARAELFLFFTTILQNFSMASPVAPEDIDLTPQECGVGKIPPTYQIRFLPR
Briefly: Metabolism-dependent inhibition assay (IC50 shift) in pooled HLMs, CYP2B6. Conditions: substrate bupropion; for IC50: CYP2B6, pooled HLMs, 95% CI in parentheses. Here is the method: (§1) The experiments for determining metabolism-dependent inhibition were conducted utilizing a non-dilution method. […] The pre-incubation was initiated by the addition of 1 mM NADPH and incubation for 30 min. Subsequently, final incubation was performed with the addition of a substrate (5 μM coumarin or 50 μM bupropion) in the presence of NADPH for 10 min; the total volume of the mixture was 200 μL. […] Mixtures were subjected to centrifugation at 3000× g for 20 min at 4 °C, and the supernatants were analyzed using LC-MS/MS. The experiment was performed using three separate samples.
(§2) The CYP-mediated activities in the presence of test substances were expressed as percentages of the corresponding control values.

For series [6], the target named is T3, CYP2A6. The series is described as follows: biochemical.
Description: (§3) A 5 min pre-incubation was performed prior to initiating reactions with the addition of 1 mM NADPH. After incubation at 37 °C for 10 min, 200 μL of ice-cold acetonitrile containing 100 nM carbamazepine as an internal standard was added to terminate the reaction. The samples were agitated and centrifuged at 4 °C for 20 min at 3000× g. The supernatants were transferred to a 96-well plate for LC-MS/MS analysis. The experiment was performed using three separate samples.
(§4) Data acquired from the evaluation of enzyme inhibition using various concentrations of substrates and test compounds were fit to different models (competitive, noncompetitive, uncompetitive, or mixed), and inhibition constant (Ki) and goodness of fit values were obtained using GraphPad Prism. The appropriate type of inhibition was selected based on statistical goodness of fit tests including Akaike’s information criterion (AICc) with correction for small sample size and the standard deviation of the residuals (Sy.x).
For series [7], the target named is T3, CYP2A6. The series is described as follows: Determination of CYP inhibition mode and Ki in pooled HLMs, CYP2A6-mediated coumarin 7-hydroxylation.
Description: as §3, §4
Series [8] deals with T2, CYP3A4. Briefly: Kinetic parameters of MDZ hydroxylation in pooled HLMs in the presence of (−)-POH. As to conditions: 100 μM (−)-POH. It counts as in vitro ADME. Here is the method:
The supernatants obtained after centrifuging at 3000× g for 20 min at 4 °C were injected into LC-MS/MS for analysis. The experiment was performed using four separate samples.
Kinetic parameters were estimated using GraphPad Prism to plot activities against the log of MDZ concentration in the presence of (–)-POH.

Series [9] concerns the target T3, CYP2A6. Briefly: Metabolism-dependent inhibition assay (IC50 shift) in pooled HLMs, CYP2A6. Conditions: substrate coumarin; for IC50: CYP2A6, pooled HLMs, 95% CI in parentheses. The protocol:
as §1, §2

Where [10] appears, read: IC50, pre-incubation with NADPH, 30 min pre-incubation with NADPH.
The mark [11] stands for this setting: IC50, pre-incubation without NADPH, 30 min pre-incubation without NADPH.
The mark [12] stands for this setting: IC50 without NADPH/IC50 with NADPH.

T2 sequence (P08684 whole entry): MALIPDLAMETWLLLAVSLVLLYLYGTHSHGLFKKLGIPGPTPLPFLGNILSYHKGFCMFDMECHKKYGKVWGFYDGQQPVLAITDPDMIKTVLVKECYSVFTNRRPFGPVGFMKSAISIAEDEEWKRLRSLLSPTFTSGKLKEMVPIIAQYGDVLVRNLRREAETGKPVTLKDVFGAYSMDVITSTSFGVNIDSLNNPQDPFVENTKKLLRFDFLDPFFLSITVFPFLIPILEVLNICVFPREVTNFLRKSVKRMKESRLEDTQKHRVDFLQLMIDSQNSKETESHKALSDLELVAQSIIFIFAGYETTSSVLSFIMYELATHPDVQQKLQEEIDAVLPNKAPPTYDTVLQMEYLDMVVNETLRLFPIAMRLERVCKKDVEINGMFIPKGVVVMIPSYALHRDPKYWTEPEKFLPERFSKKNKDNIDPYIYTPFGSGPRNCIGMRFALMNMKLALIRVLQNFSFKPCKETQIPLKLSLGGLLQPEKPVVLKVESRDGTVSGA
T1 sequence (P08684 whole entry): as above
CYP2E1, sequence (P05181 whole entry): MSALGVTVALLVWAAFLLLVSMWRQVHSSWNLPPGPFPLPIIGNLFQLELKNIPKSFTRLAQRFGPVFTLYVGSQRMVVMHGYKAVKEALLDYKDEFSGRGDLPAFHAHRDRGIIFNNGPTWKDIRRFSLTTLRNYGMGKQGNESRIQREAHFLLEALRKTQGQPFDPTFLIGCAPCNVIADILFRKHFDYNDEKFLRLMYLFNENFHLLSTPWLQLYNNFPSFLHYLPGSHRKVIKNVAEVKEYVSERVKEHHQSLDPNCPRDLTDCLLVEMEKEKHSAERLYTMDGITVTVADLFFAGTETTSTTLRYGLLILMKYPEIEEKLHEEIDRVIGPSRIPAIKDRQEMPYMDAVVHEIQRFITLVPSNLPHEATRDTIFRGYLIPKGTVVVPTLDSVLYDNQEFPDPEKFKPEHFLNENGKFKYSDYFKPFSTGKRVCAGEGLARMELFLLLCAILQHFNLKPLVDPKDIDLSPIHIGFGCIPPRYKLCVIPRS

As to `C=C(C)[C@@H]1CC=C(CO)CC1` [(−)-POH, (−)-perillyl alcohol], in [1] (rCYP3A4 in the absence of cytochrome b5, POH 0–100 μM), the “Enhancement of MDZ 1′-hydroxylation” value is recorded as “No significant enhancement”. In series [1] (rCYP3A4 in the presence of cytochrome b5, 100 μM (−)-POH, 5 μM MDZ), the “CYP3A4 activity for 1′-OH-MDZ formation compared with control without (−)-POH” value amounted to 1.57 fold. In series [2], the “Effect on CYP3A4-mediated metabolism of atorvastatin, buspirone, donepezil, nifedipine, and tadalafil” value was “did not significantly affect”. Besides, the IC50 is 15.7 µM in [3]; greater than 50 µM in series [4]; 13.4 µM in series [5] (setting [10]); 13.7 µM in series [5] (setting [11]); 23.4 µM in [9] (setting [10]); 24.3 µM in [9] (setting [11]). In addition, in series [5] (setting [12]), the “IC50 fold-shift, CYP2B6” value amounted to 1.02. In [6], this compound came in with an inhibitory constant (Ki) of 6.35 µM. Also, the “Type of inhibition, CYP2A6” value in series [7] (best fit by AICc and Sy.x, Dixon plots) was “mixed inhibition model”. In addition, the “Ki, CYP2A6, uncompetitive model (not selected)” value in [7] (pooled HLMs, coumarin, 95% CI in parentheses) was 10.9 (9.16–12.9) μM. Besides, the “Increase of Vmax/Km value of MDZ 1′-hydroxylation compared with absence of (−)-POH” value in series [8] was 2.67 fold; in series [8] (listed as POH), 2.7 fold. Further, the “IC50 fold-shift, CYP2A6” value in series [9] (setting [12]) is 1.04.

Broadly, the IC50 is the concentration that inhibits the measured activity by half. The term Ki denotes a measure of affinity in units of concentration, obtained from inhibition or displacement.
